Measured values: patent US11285130B2, “Treatment of mitochondrial diseases” (Khondrion IP B.V., priority 2017, dated 2022)
Like-named read-outs stand apart in the source and are kept apart here. Values belong to the compound of their own block, whether it stands above or below them.

Key:
[1] = system: primary human fibroblasts from patients with MELAS; assay: Oxidative stress-induced cell death (BSO) assay, MELAS patient fibroblasts; assay type: cell-based; conditions: fibroblasts derived from MELAS patients, 100 μM BSO; read-out: EC50, protection from oxidative stress-induced cell death
Description: (§1) To determine the effective concentration of the compounds (the concentrations that protect patient cells against oxidative stress-induced cell death) the applicant established an assay using stressed primary human fibroblasts from patients with Leigh syndrome, MELAS or LHON diseases. Utilising the inherent oxidative stress of fibroblasts from patients with mitochondrial disease, their oxidative burden was further increased by depleting cellular glutathione with an inhibitor of glutathione synthesis, L-buthionine-(S,R)-sulfoximine (BSO). […] Cells were seeded at a density of 3000 cells/well in a 96-well format and incubated with increasing concentrations of compounds in combination with BSO (100 μM, Sigma-aldrich). One day after treatment, the cells were washed twice and stained with a solution of 5 μM calcein-AM (Life technologies C3100MP) during 25 min in 199 medium without phenol red (Life technologies, 11043-023) at room temperature. After 2 washes with PBS (Phosphate buffered saline) the plate was read on a fluorescence plate reader (Fluostar Omega, BMG labtech) and the percentage of cell viability determined as a function of fluorescence intensity.

[2] = system: primary human fibroblasts from patients with Leigh syndrome; assay: Oxidative stress-induced cell death (BSO) assay, Leigh patient fibroblasts; assay type: cell-based
Description: as §1

[3] = SAD study pharmacokinetic analysis; assay type: in vivo, human
Description: (§2) Dose escalation to the next dose level was done after evaluation of the safety and the first 24-hour pharmacokinetic results of the previous dose. […] Anticipated exposures at this starting dose were just below the Minimum Anticipated Biological Effect Level (MABEL). Placebo (an in taste and appearance matching oral liquid) was also administered orally on one occasion in the single-ascending dose part and b.i.d. for 7 Days in the MAD part. […] All samples were stored at <-70° C. until analysis. […] For mean value calculations, all values below the limit of quantification (LOQ) were set to zero. […] The non-compartmental pharmacokinetic analysis was performed using Phoenix, Version 6.3 (Pharsight Corporation, Mountain View, Calif., USA). […] The PK parameters were calculated on the basis of the actual blood sampling time points relative to dosing. Selected pharmacokinetic parameters (Cmax, tmax, t1/2, AUClast and AUC0-int) following single-dose administration and selected pharmacokinetic parameters Cmax, tmax, [NT], the accumulation factor (Racc) and time to reach steady state) following multiple dose administration were determined. In urine, the percentage of dose excreted in urine was determined for the single- and multiple-dose administration.

[4] = MAD study pharmacokinetic analysis; assay type: in vivo, human; conditions: for AUCtau (Geomean) / Cmax (Geomean) / tmax* (median) / Racc (accumulation ratio, Geomean): MAD
Description: as §2

[5] = system: primary human fibroblasts from patients with LHON; assay: Oxidative stress-induced cell death (BSO) assay, LHON patient fibroblasts; assay type: cell-based; conditions: fibroblasts derived from LHON patients, 100 μM BSO; read-out: EC50, protection from oxidative stress-induced cell death
Description: as §1

AUC0-inf ratio (fed/fasted), 90% CI ([3]; 100 mg, fed versus fasted): 0.90 (90% Cl 0.57-1.41)
AUC0-inf (Geomean) ([3]; SAD, KH176 10 mg, fasted): 234 ng·h/mL
AUClast (Geomean) ([3]; SAD, KH176 10 mg, fasted): 151 ng·h/mL
Cmax (Geomean) ([3]; SAD, KH176 10 mg, fasted): 14.2 ng/mL
t1/2 (Geomean) ([3]; SAD, KH176 10 mg, fasted): 16.6 h
tmax* (median) ([3]; SAD, KH176 10 mg, fasted): 1.25 h
AUC0-inf (Geomean) ([3]; SAD, KH176 30 mg, fasted): 881 ng·h/mL
AUClast (Geomean) ([3]; SAD, KH176 30 mg, fasted): 547 ng·h/mL
Cmax (Geomean) ([3]; SAD, KH176 30 mg, fasted): 49.4 ng/mL
t1/2 (Geomean) ([3]; SAD, KH176 30 mg, fasted): 17.8 h
tmax* (median) ([3]; SAD, KH176 30 mg, fasted): 1.50 h
AUC0-inf (Geomean) ([3]; SAD, KH176 100 mg, fasted): 2690 ng·h/mL
AUClast (Geomean) ([3]; SAD, KH176 100 mg, fasted): 1810 ng·h/mL
Cmax (Geomean) ([3]; SAD, KH176 100 mg, fasted): 168 ng/mL
t1/2 (Geomean) ([3]; SAD, KH176 100 mg, fasted): 15.4 h
tmax* (median) ([3]; SAD, KH176 100 mg, fasted): 1.25 h
AUC0-inf (Geomean) ([3]; SAD, KH176 100 mg, fed): 2410 ng·h/mL
AUClast (Geomean) ([3]; SAD, KH176 100 mg, fed): 1590 ng·h/mL
Cmax (Geomean) ([3]; SAD, KH176 100 mg, fed): 117 ng/mL
t1/2 (Geomean) ([3]; SAD, KH176 100 mg, fed): 14.9 h
tmax* (median) ([3]; SAD, KH176 100 mg, fed): 2.50 h
AUC0-inf (Geomean) ([3]; SAD, KH176 300 mg, fasted): 6890 ng·h/mL
AUClast (Geomean) ([3]; SAD, KH176 300 mg, fasted): 4830 ng·h/mL
Cmax (Geomean) ([3]; SAD, KH176 300 mg, fasted): 497 ng/mL
t1/2 (Geomean) ([3]; SAD, KH176 300 mg, fasted): 14.3 h
tmax* (median) ([3]; SAD, KH176 300 mg, fasted): 1.24 h
AUC0-inf (Geomean) ([3]; SAD, KH176 800 mg, fasted): 18700 ng·h/mL
AUClast (Geomean) ([3]; SAD, KH176 800 mg, fasted): 11700 ng·h/mL
Cmax (Geomean) ([3]; SAD, KH176 800 mg, fasted): 1100 ng/mL
t1/2 (Geomean) ([3]; SAD, KH176 800 mg, fasted): 17.2 h
tmax* (median) ([3]; SAD, KH176 800 mg, fasted): 1.50 h
AUC0-inf (Geomean) ([3]; SAD, KH176 2000 mg, fasted): 41300 ng·h/mL
AUClast (Geomean) ([3]; SAD, KH176 2000 mg, fasted): 23900 ng·h/mL
Cmax (Geomean) ([3]; SAD, KH176 2000 mg, fasted): 1780 ng/mL
t1/2 (Geomean) ([3]; SAD, KH176 2000 mg, fasted): 18.9 h
tmax* (median) ([3]; SAD, KH176 2000 mg, fasted): 1.75 h
t1/2 ([3]; SAD, approximate, across dose groups): approximately 16 h
median tmax ([3]; fasted condition (100 mg)): approximately 1 h
median tmax ([3]; fed condition (100 mg, high calorie/high fat breakfast)): 2.5 h
AUCtau (Geomean) ([4]; KH176 100 mg b.i.d, Day 1): 702 ng·h/mL
Cmax (Geomean) ([4]; KH176 100 mg b.i.d, Day 1): 99.4 ng/mL
tmax* (median) ([4]; KH176 100 mg b.i.d, Day 1): 1.50 h
AUCtau (Geomean) ([4]; KH176 100 mg b.i.d, Day 7): 1310 ng·h/mL
Cmax (Geomean) ([4]; KH176 100 mg b.i.d, Day 7): 152 ng/mL
Racc (accumulation ratio, Geomean) ([4]; KH176 100 mg b.i.d, Day 7): 1.86
tmax* (median) ([4]; KH176 100 mg b.i.d, Day 7): 1.00 h
AUCtau (Geomean) ([4]; KH176 200 mg b.i.d, Day 1): 1680 ng·h/mL
Cmax (Geomean) ([4]; KH176 200 mg b.i.d, Day 1): 251 ng/mL
tmax* (median) ([4]; KH176 200 mg b.i.d, Day 1): 1.75 h
AUCtau (Geomean) ([4]; KH176 200 mg b.i.d, Day 7): 2220 ng·h/mL
Cmax (Geomean) ([4]; KH176 200 mg b.i.d, Day 7): 250 ng/mL
Racc (accumulation ratio, Geomean) ([4]; KH176 200 mg b.i.d, Day 7): 1.32
tmax* (median) ([4]; KH176 200 mg b.i.d, Day 7): 1.50 h
AUCtau (Geomean) ([4]; KH176 400 mg b.i.d, Day 1): 3600 ng·h/mL
Cmax (Geomean) ([4]; KH176 400 mg b.i.d, Day 1): 550 ng/mL
tmax* (median) ([4]; KH176 400 mg b.i.d, Day 1): 1.25 h
AUCtau (Geomean) ([4]; KH176 400 mg b.i.d, Day 7): 4270 ng·h/mL
Cmax (Geomean) ([4]; KH176 400 mg b.i.d, Day 7): 450 ng/mL
Racc (accumulation ratio, Geomean) ([4]; KH176 400 mg b.i.d, Day 7): 1.19
tmax* (median) ([4]; KH176 400 mg b.i.d, Day 7): 1.50 h
AUCtau (one dosing interval, 12 hours), range ([4]; steady state, 100 mg BID): 851 to 1570 ng·h/mL
average concentrations, range ([4]; steady state, 100 mg BID): 70.9 to 130.8 ng/mL
maximum concentration, range ([4]; steady state, 100 mg BID, healthy subjects): 89.4 to 204 ng/mL
Structure (SMILES): CC1=C(C)C(=O)C(CC[C@](C)(O)C(=O)N[C@@H]2CCCNC2)=C(C)C1=O [KH176m]
EC50 [1]: 14 nM
EC50 ([2]; fibroblasts derived from Leigh patients, 100 μM BSO, one day, calcein-AM viability, read-out: EC50 (half maximum effective concentration), protection from oxidative stress-induced cell death): 16 nM
EC50 expressed in ng/mL ([2]; in vitro fibroblast assays (Redox assay), fibroblast type not given, values match Leigh): around 5.8 ng/mL
EC50 ([2]; in vitro fibroblast assays (Redox assay), fibroblast type not given, values match Leigh, read-out: EC50): 16 nM
EC50 [5]: 4 nM

Structure (SMILES): COC1=C(OC)C(=O)C(CCCCCCCCCCO)=C(C)C1=O [Idebenone, reference compound]
EC50 ([2]; Homo sapiens, in vitro fibroblast assays (Redox assay), fibroblast type not given, values match Leigh, read-out: EC50): 1470 nM
